test system: not listed separately; test: Antioxidant activity assessed as DPPH radical scavenging activity at 30 uM after 60 mins by spectrophotometric method relative to control; type: functional; conditions: not given

SMILES	Activity
Nc1ccccc1NC=C1C(=O)NC(=S)NC1=O	17.3%
CC(NNc1ccc([N+](=O)[O-])cc1[N+](=O)[O-])=C1C(=O)NC(=O)NC1=O	18.1%
O=C1NC(=S)NC(=O)C1=CNc1cc([N+](=O)[O-])ccc1Cl	-3.68%
O=C1NC(=S)NC(=O)C1=CNc1ccccc1Cl	0.92%
CC(NN)=C1C(=O)NC(=O)NC1=O	25.4%
CN1C(=O)C(=CNC(N)=S)C(=O)N(C)C1=O	31.9%
CC(NN)=C1C(=O)N(c2ccccc2)C(=S)N(c2ccccc2)C1=O	41.9%
NC(=S)NC=C1C(=O)NC(=S)NC1=O	4.18%
COc1ccc(CC2C(=O)NC(=O)NC2=O)cc1	14%
CN1C(=O)C(=CNC(N)=O)C(=O)N(C)C1=O	2.91%

test system: Pseudomonas aeruginosa; test: Antibacterial activity against Pseudomonas aeruginosa ATCC 27853 after 24 hrs by broth microdilution method; type: functional; conditions: ATCC 27853, 24 h

SMILES	MIC
Nc1ccccc1NC=C1C(=O)NC(=S)NC1=O	> 200 µM
CC(NNc1ccc([N+](=O)[O-])cc1[N+](=O)[O-])=C1C(=O)NC(=O)NC1=O	> 200 µM
O=C1NC(=S)NC(=O)C1=CNc1cc([N+](=O)[O-])ccc1Cl	> 200 µM
O=C1NC(=S)NC(=O)C1=CNc1ccccc1Cl	> 200 µM
CC(NN)=C1C(=O)NC(=O)NC1=O	> 200 µM
CN1C(=O)C(=CNC(N)=S)C(=O)N(C)C1=O	> 200 µM
CC(NN)=C1C(=O)N(c2ccccc2)C(=S)N(c2ccccc2)C1=O	> 200 µM
NC(=S)NC=C1C(=O)NC(=S)NC1=O	> 200 µM
COc1ccc(CC2C(=O)NC(=O)NC2=O)cc1	> 200 µM
CN1C(=O)C(=CNC(N)=O)C(=O)N(C)C1=O	> 200 µM

test system: MCF7; test: Antiproliferative activity against human MCF7 cells at 30 uM after 72 hrs by MTT assay relative to control; type: functional; conditions: not given

SMILES	Activity
Nc1ccccc1NC=C1C(=O)NC(=S)NC1=O	64.55%
CC(NNc1ccc([N+](=O)[O-])cc1[N+](=O)[O-])=C1C(=O)NC(=O)NC1=O	50.01%
O=C1NC(=S)NC(=O)C1=CNc1cc([N+](=O)[O-])ccc1Cl	63.7%
O=C1NC(=S)NC(=O)C1=CNc1ccccc1Cl	47.17%
CC(NN)=C1C(=O)NC(=O)NC1=O	98.27%
CN1C(=O)C(=CNC(N)=S)C(=O)N(C)C1=O	59.18%
CC(NN)=C1C(=O)N(c2ccccc2)C(=S)N(c2ccccc2)C1=O	99.93%
NC(=S)NC=C1C(=O)NC(=S)NC1=O	111.15%
COc1ccc(CC2C(=O)NC(=O)NC2=O)cc1	73.12%
CN1C(=O)C(=CNC(N)=O)C(=O)N(C)C1=O	97.13%

test system: Bacillus cereus; test: Antibacterial activity against Bacillus cereus ATCC 1178 after 24 hrs by broth microdilution method; type: functional; conditions: ATCC 1178, 24 h

SMILES	MIC
Nc1ccccc1NC=C1C(=O)NC(=S)NC1=O	> 200 µM
CC(NNc1ccc([N+](=O)[O-])cc1[N+](=O)[O-])=C1C(=O)NC(=O)NC1=O	> 200 µM
O=C1NC(=S)NC(=O)C1=CNc1cc([N+](=O)[O-])ccc1Cl	> 200 µM
O=C1NC(=S)NC(=O)C1=CNc1ccccc1Cl	> 200 µM
CC(NN)=C1C(=O)NC(=O)NC1=O	> 200 µM
CN1C(=O)C(=CNC(N)=S)C(=O)N(C)C1=O	> 200 µM
CC(NN)=C1C(=O)N(c2ccccc2)C(=S)N(c2ccccc2)C1=O	> 200 µM
NC(=S)NC=C1C(=O)NC(=S)NC1=O	> 200 µM
COc1ccc(CC2C(=O)NC(=O)NC2=O)cc1	> 200 µM
CN1C(=O)C(=CNC(N)=O)C(=O)N(C)C1=O	> 200 µM

test system: Acinetobacter baumannii; test: Antibacterial activity against Acinetobacter baumannii LMG 1025 after 24 hrs by broth microdilution method; type: functional; conditions: LMG 1025, 24 h

SMILES	MIC
Nc1ccccc1NC=C1C(=O)NC(=S)NC1=O	> 200 µM
CC(NNc1ccc([N+](=O)[O-])cc1[N+](=O)[O-])=C1C(=O)NC(=O)NC1=O	> 200 µM
O=C1NC(=S)NC(=O)C1=CNc1cc([N+](=O)[O-])ccc1Cl	> 200 µM
O=C1NC(=S)NC(=O)C1=CNc1ccccc1Cl	> 200 µM
CC(NN)=C1C(=O)NC(=O)NC1=O	> 200 µM
CN1C(=O)C(=CNC(N)=S)C(=O)N(C)C1=O	> 200 µM
CC(NN)=C1C(=O)N(c2ccccc2)C(=S)N(c2ccccc2)C1=O	> 200 µM
NC(=S)NC=C1C(=O)NC(=S)NC1=O	> 200 µM
COc1ccc(CC2C(=O)NC(=O)NC2=O)cc1	> 200 µM
CN1C(=O)C(=CNC(N)=O)C(=O)N(C)C1=O	> 200 µM

test system: Klebsiella pneumoniae; test: Antibacterial activity against Klebsiella pneumoniae ATCC 13883 after 24 hrs by broth microdilution method; type: functional; conditions: ATCC 13883, 24 h

SMILES	MIC
Nc1ccccc1NC=C1C(=O)NC(=S)NC1=O	> 200 µM
CC(NNc1ccc([N+](=O)[O-])cc1[N+](=O)[O-])=C1C(=O)NC(=O)NC1=O	> 200 µM
O=C1NC(=S)NC(=O)C1=CNc1cc([N+](=O)[O-])ccc1Cl	> 200 µM
O=C1NC(=S)NC(=O)C1=CNc1ccccc1Cl	> 200 µM
CC(NN)=C1C(=O)NC(=O)NC1=O	> 200 µM
CN1C(=O)C(=CNC(N)=S)C(=O)N(C)C1=O	> 200 µM
CC(NN)=C1C(=O)N(c2ccccc2)C(=S)N(c2ccccc2)C1=O	> 200 µM
NC(=S)NC=C1C(=O)NC(=S)NC1=O	> 200 µM
COc1ccc(CC2C(=O)NC(=O)NC2=O)cc1	> 200 µM
CN1C(=O)C(=CNC(N)=O)C(=O)N(C)C1=O	> 200 µM

test system: Escherichia coli; test: Antibacterial activity against Escherichia coli ATCC 25922 after 24 hrs by broth microdilution method; type: functional; conditions: ATCC 25922, 24 h

SMILES	MIC
Nc1ccccc1NC=C1C(=O)NC(=S)NC1=O	> 200 µM
CC(NNc1ccc([N+](=O)[O-])cc1[N+](=O)[O-])=C1C(=O)NC(=O)NC1=O	> 200 µM
O=C1NC(=S)NC(=O)C1=CNc1cc([N+](=O)[O-])ccc1Cl	> 200 µM
O=C1NC(=S)NC(=O)C1=CNc1ccccc1Cl	> 200 µM
CC(NN)=C1C(=O)NC(=O)NC1=O	> 200 µM
CN1C(=O)C(=CNC(N)=S)C(=O)N(C)C1=O	> 200 µM
CC(NN)=C1C(=O)N(c2ccccc2)C(=S)N(c2ccccc2)C1=O	> 200 µM
NC(=S)NC=C1C(=O)NC(=S)NC1=O	> 200 µM
COc1ccc(CC2C(=O)NC(=O)NC2=O)cc1	> 200 µM
CN1C(=O)C(=CNC(N)=O)C(=O)N(C)C1=O	> 200 µM

test system: not listed separately; test: Antioxidant activity assessed as DPPH radical scavenging activity at 30 uM after 20 mins by spectrophotometric method relative to control; type: functional; conditions: not given

SMILES	Activity
Nc1ccccc1NC=C1C(=O)NC(=S)NC1=O	6.1%
CC(NNc1ccc([N+](=O)[O-])cc1[N+](=O)[O-])=C1C(=O)NC(=O)NC1=O	17.6%
O=C1NC(=S)NC(=O)C1=CNc1cc([N+](=O)[O-])ccc1Cl	-4.31%
O=C1NC(=S)NC(=O)C1=CNc1ccccc1Cl	1.12%
CC(NN)=C1C(=O)NC(=O)NC1=O	11.6%
CN1C(=O)C(=CNC(N)=S)C(=O)N(C)C1=O	20.3%
CC(NN)=C1C(=O)N(c2ccccc2)C(=S)N(c2ccccc2)C1=O	31.3%
NC(=S)NC=C1C(=O)NC(=S)NC1=O	3.37%
COc1ccc(CC2C(=O)NC(=O)NC2=O)cc1	10.4%
CN1C(=O)C(=CNC(N)=O)C(=O)N(C)C1=O	2.1%

test system: Staphylococcus aureus; test: Antibacterial activity against Staphylococcus aureus ATCC 25923 after 24 hrs by broth microdilution method; type: functional; conditions: ATCC 25923, 24 h

SMILES	MIC
Nc1ccccc1NC=C1C(=O)NC(=S)NC1=O	> 200 µM
CC(NNc1ccc([N+](=O)[O-])cc1[N+](=O)[O-])=C1C(=O)NC(=O)NC1=O	> 200 µM
O=C1NC(=S)NC(=O)C1=CNc1cc([N+](=O)[O-])ccc1Cl	> 200 µM
O=C1NC(=S)NC(=O)C1=CNc1ccccc1Cl	> 200 µM
CC(NN)=C1C(=O)NC(=O)NC1=O	> 200 µM
CN1C(=O)C(=CNC(N)=S)C(=O)N(C)C1=O	> 200 µM
CC(NN)=C1C(=O)N(c2ccccc2)C(=S)N(c2ccccc2)C1=O	> 200 µM
NC(=S)NC=C1C(=O)NC(=S)NC1=O	> 200 µM
COc1ccc(CC2C(=O)NC(=O)NC2=O)cc1	> 200 µM
CN1C(=O)C(=CNC(N)=O)C(=O)N(C)C1=O	> 200 µM

test system: Salmonella typhimurium; test: Antibacterial activity against Salmonella typhimurium ATCC 13311 after 24 hrs by broth microdilution method; type: functional, Salmonella enterica subsp. enterica serovar Typhimurium; conditions: Salmonella enterica, ATCC 13311, 24 h

SMILES	MIC
Nc1ccccc1NC=C1C(=O)NC(=S)NC1=O	> 200 µM
CC(NNc1ccc([N+](=O)[O-])cc1[N+](=O)[O-])=C1C(=O)NC(=O)NC1=O	> 200 µM
O=C1NC(=S)NC(=O)C1=CNc1cc([N+](=O)[O-])ccc1Cl	> 200 µM
O=C1NC(=S)NC(=O)C1=CNc1ccccc1Cl	> 200 µM
CC(NN)=C1C(=O)NC(=O)NC1=O	> 200 µM
CN1C(=O)C(=CNC(N)=S)C(=O)N(C)C1=O	> 200 µM
CC(NN)=C1C(=O)N(c2ccccc2)C(=S)N(c2ccccc2)C1=O	> 200 µM
NC(=S)NC=C1C(=O)NC(=S)NC1=O	> 200 µM
COc1ccc(CC2C(=O)NC(=O)NC2=O)cc1	> 200 µM
CN1C(=O)C(=CNC(N)=O)C(=O)N(C)C1=O	> 200 µM

test system: NHDF; test: Antiproliferative activity against NHDF at 30 uM after 72 hrs by MTT assay relative to control; type: cell-based; conditions: human

SMILES	Activity
Nc1ccccc1NC=C1C(=O)NC(=S)NC1=O	70.13%
CC(NNc1ccc([N+](=O)[O-])cc1[N+](=O)[O-])=C1C(=O)NC(=O)NC1=O	79.47%
O=C1NC(=S)NC(=O)C1=CNc1cc([N+](=O)[O-])ccc1Cl	70.28%
O=C1NC(=S)NC(=O)C1=CNc1ccccc1Cl	65.67%
CC(NN)=C1C(=O)NC(=O)NC1=O	82.68%
CN1C(=O)C(=CNC(N)=S)C(=O)N(C)C1=O	84.63%
CC(NN)=C1C(=O)N(c2ccccc2)C(=S)N(c2ccccc2)C1=O	86.68%
NC(=S)NC=C1C(=O)NC(=S)NC1=O	83.56%
COc1ccc(CC2C(=O)NC(=O)NC2=O)cc1	60.77%
CN1C(=O)C(=CNC(N)=O)C(=O)N(C)C1=O	86.84%

From ChEMBL document CHEMBL4138236, “Trisubstituted barbiturates and thiobarbiturates: Synthesis and biological evaluation as xanthine oxidase inhibitors, antioxidants, antibacterial and anti-proliferative agents” (Eur J Med Chem, 2018)
